Test results as given in BindingDB's records for patent US20250388560 (Hitgen, 2025).

Biological target: E3 ubiquitin-protein ligase TRIM21 (UniProt P19474)
Experiment: Detection of SPR Binding Assays (Surface Plasmon Resonance Binding Assay) of TRIM21 Compounds
Procedure: The protein fixation buffer, the running buffer A and the running buffer B were prepared and filtered through a […] membrane prior to use. TRIM21 Protein FixationThe running buffer A was used as the protein fixation buffer. The protein fixation buffer and the TRIM21 protein were mixed to prepare a 40.0 µg/mL mixed solution.

Chain of E3 ubiquitin-protein ligase TRIM21 (P19474 whole entry): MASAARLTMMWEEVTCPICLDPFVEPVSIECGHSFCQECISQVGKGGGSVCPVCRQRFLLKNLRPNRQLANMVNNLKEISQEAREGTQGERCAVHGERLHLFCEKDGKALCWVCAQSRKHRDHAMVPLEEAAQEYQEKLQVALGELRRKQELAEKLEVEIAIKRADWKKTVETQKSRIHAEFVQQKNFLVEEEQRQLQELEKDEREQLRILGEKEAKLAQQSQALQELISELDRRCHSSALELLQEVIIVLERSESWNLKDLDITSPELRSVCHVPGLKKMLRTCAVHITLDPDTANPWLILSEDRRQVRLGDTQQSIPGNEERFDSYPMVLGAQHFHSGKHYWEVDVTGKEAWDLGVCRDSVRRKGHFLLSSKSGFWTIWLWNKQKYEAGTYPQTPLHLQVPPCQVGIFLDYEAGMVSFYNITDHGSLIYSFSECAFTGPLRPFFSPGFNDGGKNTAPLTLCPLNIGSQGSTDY

Kd [µM]	Compound
> 10	CN(CC1CCCCC1)C(=O)c1ccc(-c2cccc3occc23)cc1S(C)(=O)=O [US20250388560, Compound 48]
> 10	CN(CC1CCCCC1)C(=O)c1ccc(-c2cccc3[nH]ccc23)cc1S(C)(=O)=O [US20250388560, Compound 50]
< 0.01	COc1cc(F)ccc1-c1ccc(C(=O)N(C)Cc2cc[nH]c(=O)c2)c(S(C)(=O)=O)c1 [US20250388560, Compound 57]
> 10	CN(CC1CCCCC1)C(=O)c1ccc(-c2cccc3cc[nH]c23)cc1S(C)(=O)=O [US20250388560, Compound 51]
< 0.01	CSc1cc(F)ccc1-c1ccc(C(=O)N(C)Cc2cc[nH]c(=O)c2)c(S(C)(=O)=O)c1 [US20250388560, Compound 56]
> 10	CN(CC1CCCCC1)C(=O)c1ccc(-c2ccccc2)cc1S(C)(=O)=O [US20250388560, Compound 58]
< 0.01	CSc1cc(F)ccc1-c1ccc(C(=O)N(C)CC2CCOCC2)c(S(C)(=O)=O)c1 [US20250388560, Compound 55]
> 10	CSc1ccccc1-c1ccc(C(=O)N(C)CCN2CCCCC2)c(S(C)(=O)=O)c1 [US20250388560, Compound 22]
> 10	Cc1cccc(-c2ccc(C(=O)N(C)CC3CCCCC3)c(S(C)(=O)=O)c2)c1 [US20250388560, Compound 44]
> 10	CSc1ccccc1-c1ccc(C(=O)N(C)CCN2CCOCC2)c(S(C)(=O)=O)c1 [US20250388560, Compound 21]
